{
  "source": "paper PMC5768801",
  "about": "“The PII signaling protein from red algae represents an evolutionary link between cyanobacterial and Chloroplastida PII proteins” (Scientific Reports, 2018)",
  "key": {"PpPII": {"target": "PpPII (Porphyra purpurea, UniProt P51254)", "sequence (P51254 whole entry)": "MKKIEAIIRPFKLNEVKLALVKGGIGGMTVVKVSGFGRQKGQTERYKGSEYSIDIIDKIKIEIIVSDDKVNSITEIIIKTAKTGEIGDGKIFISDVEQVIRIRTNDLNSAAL", "test": "ITC binding of small effector molecules to red algal PpPII", "method": "(§1) To gain additional insights into the ligand binding properties of PpPII in comparison to cyanobacterial and chloroplastid PII proteins, isothermal titration calorimetry (ITC) experiments were performed using highly purified Strep-tagged or His-tagged recombinant PpPII, SyPII, CrPII, and PhyscoPII proteins (Supplementary Fig. S1) with different protein/ligand/ concentrations to determine the best fitting conditions of the binding model. The titration experiments were repeated with different protein preparations to confirm the reproducibility of the results. The raw isothermal data were fitted into one-binding site as well as three-sequential binding sites to define the best fitting model. Fitting using a one binding site model states an average Kd value for all available binding sites and the mean of the stoichiometry of bound ligands.\n(§2) The ITC experiments were done using a VP-ITC microcalorimeter (MicroCal, LCC). All details for determination of binding constants for small effector molecules using ITC are fully described in the supplementary information. Heat isotherms of the dilution of the ligand in the cell buffer were collected in a blank run for each experiment in the absence of protein. The binding isotherms were calculated from received data and fitted to one-site and three-sequential binding sites models using the MicroCal ORIGIN software (Northampton) as described. All titrations were performed in duplicates with different purification batches of recombinant PII proteins. The association binding constant (Ka) was generated from the software by de-convolution and curve fitting. For calculation of dissociation constant (Kd), the Ka value was inversed.\n(§3) Supplementary Information […]\n(§4) Determination of Binding Constants for Small Effector Molecules using Isothermal […]\n(§5) The binding of the small effector molecules to the recombinant PII proteins was tested using isothermal titration calarmity (ITC); VP-ITC microcalorimeter (MicroCal). All titrations were performed on 20°C using […] injection syringe with injection 6 µl or 10 µl of the tested ligands for 45 or 29 times, respectively into the cell (1.4 ml) with continuous stirring at 155 rpm. All tested ligands were high grade, prepared freshly in the same buffer of the protein and purchased from Sigma-Aldrich. Heat isotherms for the dilution of the ligand in the cell buffer were collected in a blank run in the absence of protein. The received calorimetric data were analyzed using MicroCal Origin software and fitted into one-site and three-sequential binding sites models, as indicated by the manufacture for calculation of binding isotherms9. For data reproducibility, the titrations were performed in duplicates with different purification batches of recombinant PII proteins. The association binding constant (Ka) was generated from the software by de-convolution and curve fitting. For calculation of dissociation constant (Kd), the Ka value was inversed.\nFor determination the binding isotherms of red algal PpPII protein, a buffer system composed of […]\nused. For determination ATP and ADP binding isotherms upon the binding to PpPII protein, His- […]\nagainst 2 mM ATP or 2 mM ADP. For determination of ATP and ADP binding isotherms in […]\nconcentration) was titrated against 0.5 mM of ATP or 1 mM ADP, respectively. However, for […]\nof 1 mM of ATP or 1 mM ADP. […]"}, "PhyscoPII": {"target": "PhyscoPII", "test": "ITC binding of small effector molecules to plant-moss PhyscoPII", "design": "species or system Physcomitrella patens", "method": "as §1, §2, §3, §4, §5\n5 mM MgCl2, 0.5 mM EDTA, and 10% glycerol (pH 7.6). […]\nFor determination the binding isotherms of plant-moss PhyscoPII protein, a strep-tagged recombinant protein (5 or 6 µM trimeric concentration) was used in system composed of 20 mM"}, "ScNAGK": {"target": "T1, ScNAGK (Synechocystis sp., UniProt P73326)", "T1 sequence (P73326 1-297)": "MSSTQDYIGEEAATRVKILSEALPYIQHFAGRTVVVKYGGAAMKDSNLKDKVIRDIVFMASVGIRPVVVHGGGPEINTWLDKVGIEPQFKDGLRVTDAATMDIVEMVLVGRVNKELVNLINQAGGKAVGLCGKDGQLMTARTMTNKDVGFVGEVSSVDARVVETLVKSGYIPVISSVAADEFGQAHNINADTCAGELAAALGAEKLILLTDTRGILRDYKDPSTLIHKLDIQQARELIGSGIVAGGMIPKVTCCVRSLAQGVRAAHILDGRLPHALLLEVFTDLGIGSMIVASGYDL", "test": "AGPR-coupled NAGK activity assay without PpPII", "format": "biochemical, Synechocystis sp. PCC 6803", "conditions": "absence of PpPII, comparing 0 and 4 mM ADP, at 1 mM or 2 mM ATP", "text": "All available structural information of PII proteins revelas that ATP and ADP bind to the same binding sites[2],[7]. When ATP and ADP are simultaneously present, they will compete for binding to the PII trimer. Since, the ATP/ADP binding site of the red algal PpPII protein is highly conserved (Fig. 1), competition between the nucleotides will occur. Since the activation of NAGK by PII is dependent on the ATP-ligated state of PII[9] and ADP inhibits PII-NAGK complex formation[9],[31], competition between ATP/ADP for PII binding can be monitored by measuring NAGK activity[31] under different ATP/ADP ratios. For this assay, we used an AGPR-coupled activity assay for NAGK[33], which allows measurement of NAGK activity in presence of ADP. Different concentrations of ADP were added to reaction mixtures containing either 1 mM or 2 mM ATP, in the absence or presence of PpPII (Fig. 8). Addition of ADP led to a monotonical and shallow decrease in the activity of ScNAGK at both fixed ATP concentration. […]\nThe change in NADPH absorbance was recorded at 340 nm as described previously[31],[33], in a reaction buffer composed of 50 mM potassium phosphate (pH 7.0), 50 mM KCl, 20 mM MgCl2, 0.2 mM NADPH and 0.5 mM DTT. […] The reaction was started by the addition of ScNAGK and was recorded for 10 min with a spectrophotometer (SPECORD 210 PLUS, Analytik Jena). Kinetic constants were calculated as descried above."}},
  "note": "Several values for one entry are separate records, joined by “and”; a condition that tells them apart may be missing. Equal entries are not always repeated. Entries after “also recorded” stand apart in the source; their conditions may differ. Where two headings read alike, the source gives them in different places.",
  "data": [
    {"smiles": "Nc1ncnc2c1ncn2[C@@H]1O[C@H](COP(=O)(O)OP(=O)(O)O)[C@@H](O)[C@H]1O", "note": "[ADP]", "values": [
      {"measurement": "N, number of calculated binding sites (one-site binding model)", "setting": "PpPII; in presence 2-OG (1 mM)", "value": 2.7},
      {"measurement": "Kd", "setting": "PpPII; in presence 2-OG (1 mM), read-out: Average Kd (one-site binding model)", "value": "10.8 ± 2.8", "unit": "µM"},
      {"measurement": "Kd", "setting": "PpPII; in presence 2-OG (1 mM), read-out: Kd1 (three-sites binding model)", "value": "10.3 ± 10", "unit": "µM"},
      {"measurement": "Kd", "setting": "PpPII; in presence 2-OG (1 mM), read-out: Kd2 (three-sites binding model)", "value": "43.6 ± 4.7", "unit": "µM"},
      {"measurement": "Kd", "setting": "PpPII; in presence 2-OG (1 mM), read-out: Kd3 (three-sites binding model)", "value": "125.9 ± 0.9", "unit": "µM"},
      {"measurement": "N, number of calculated binding sites (one-site binding model)", "setting": "PpPII; titrant alone, per PII trimer", "value": 2.7},
      {"measurement": "Kd", "setting": "PpPII; titrant alone, read-out: Average Kd (one-site binding model)", "value": "~7.2 µM and 7.2 µM"},
      {"measurement": "Kd", "setting": "PpPII; titrant alone, read-out: Kd1 (three-sites binding model)", "value": "3.4 ± 0.5", "unit": "µM"},
      {"measurement": "Kd", "setting": "PpPII; titrant alone, read-out: Kd2 (three-sites binding model)", "value": "15.2 ± 0.7", "unit": "µM"},
      {"measurement": "Kd", "setting": "PpPII; titrant alone, read-out: Kd3 (three-sites binding model)", "value": "132 ± 2.7", "unit": "µM"},
      {"measurement": "Average Kd (one-site binding model)", "setting": "PhyscoPII; in presence 2-OG", "value": "No binding"},
      {"measurement": "Kd1 (three-sites binding model)", "setting": "PhyscoPII; in presence 2-OG", "value": "No binding"},
      {"measurement": "Kd2 (three-sites binding model)", "setting": "PhyscoPII; in presence 2-OG", "value": "No binding"},
      {"measurement": "Kd3 (three-sites binding model)", "setting": "PhyscoPII; in presence 2-OG", "value": "No binding"},
      {"measurement": "Average Kd (one-site binding model)", "setting": "PhyscoPII; titrant alone", "value": "unable to detect any binding; also recorded: No binding"},
      {"measurement": "Kd1 (three-sites binding model)", "setting": "PhyscoPII; titrant alone", "value": "No binding"},
      {"measurement": "Kd2 (three-sites binding model)", "setting": "PhyscoPII; titrant alone", "value": "No binding"},
      {"measurement": "Kd3 (three-sites binding model)", "setting": "PhyscoPII; titrant alone", "value": "No binding"},
      {"measurement": "reduction of ScNAGK activity", "setting": "ScNAGK", "value": "about 1.8 fold"}
    ]}
  ]
}
